Results: patent publication US11987571B1, “Ethyl 2-[9-(6-chloro-2-hydroxyquinolin-3-yl)-3,6-diphenyl-1,8-dioxo-3,4,9,10-tetrahydroacridine-10-yl]-acetate as an antimicrobial compound” (KING FAISAL UNIVERSITY, priority 2023, dated 2024)

Columns and labels:
Candida albicans = assay: Antimicrobial activity by agar dilution, Candida albicans; type: cell-based; conditions: after 10, 20, 40 and 60 minutes at all dilutions 1:100, 1:200, 1:400, and 1:800
Description: (§1) The antibacterial properties of the synthesized compound (ethyl 2-[9-(6-chloro-2-hydroxyquinolin-3-yl)-3,6-diphenyl-1,8-dioxo-3,4,9,10-tetrahydroacridine-10-yl]-acetate) were studied by the method of agar dilution. Test solutions of each compound was prepared in concentration of 1% using dimethylformamide as a solvent. Then they were diluted in physiological solution to obtain the final experimental dilutions of 1:100, 1:200, 1:400, and 1:800. The effect of these substances were compared with furacillin in a controllable study. The testing microbes used were gram positive bacteria Staphylococcus aureus, gram negative bacteria Pseudomonas aeruginosa, Escherichia coli, and Candida albicans fungus. The experiments used for this survey were meat-pentonlu agar (EPA) for cultivation of bacteria and Saburo environment for fungi. Each experiment used 1 mL of test solution on each plate for […]. Two drops of emulsified with microbes feel were added. All experimental samples were taken from the agar after 10, 20, 40, 60 minutes in the environment on the basis of Patrk planted. Bacteria were cultivated at a temperature of 37° C. for 1 day and the mushroom was kept in a thermostat for […] at a temperature of 28° C. Then results were checked. Those of control and the antimicrobial activity for the synthesized compounds are listed in Table 1 below, with furacillin serving as a reference.

Escherichia coli = assay: Antimicrobial activity by agar dilution, E. Coli; type: cell-based; conditions: after 10, 20, 40 and 60 minutes at all dilutions 1:100, 1:200, 1:400, and 1:800
Description: as §1

Pseudomonas aeruginosa = assay: Antimicrobial activity by agar dilution, Ps. aeruginosa; type: cell-based; conditions: after 10, 20, 40 and 60 minutes at all dilutions 1:100, 1:200, 1:400, and 1:800
Description: as §1

Staphylococcus aureus = assay: Antimicrobial activity by agar dilution, St. Aereus; type: cell-based; conditions: after 10, 20, 40 and 60 minutes at all dilutions 1:100, 1:200, 1:400, and 1:800
Description: as §1

In the case of `CCOC(=O)CN1C2=C(C(=O)CC(c3ccccc3)C2)C(c2cc3cc(Cl)ccc3nc2O)C2=C1CC(c1ccccc1)CC2=O` (centres unmarked) [ethyl 2-[9-(6-chloro-2-hydroxyquinolin-3-yl)-3,6-diphenyl-1,8-dioxo-3,4,9,10-tetrahydroacridine-10-yl]-acetate], the “inhibition activity compared with Furacilin” value (Candida albicans) is reported as “higher inhibition activity”, the “inhibition activity compared with Furacilin” value (Escherichia coli) is reported as “higher inhibition activity” and the “inhibition activity compared with Furacilin” value (Pseudomonas aeruginosa) is reported as “higher inhibition activity”. The “inhibition activity compared with Furacilin” value (Staphylococcus aureus) was “higher inhibition activity” and the melting point was 222 °C.
